Laboratory results from patent US9522198B2, “Methods and compositions related to targeting tumors and wounds” (Sanford-Burnham Medical Research Institute, priority 2006, dated 2016).
“Also recorded” adds a separate entry of the source. Ends that are not written are not given here.

What was measured:
fibrin(ogen) = experiment: Co-localization of injected peptide with fibrin staining in tumor sections; format: in vivo, mouse; conditions: MDA-MB-435 xenograft sections, i.v. injected peptide
Protocol: (§1) The mice were perfused through the heart 3 hours after the peptide injection and tissues removed for examination. For fibrin and fibronectin immunostaining, tissues were fixed with 4% paraformaldehyde and stained with biotinylated mouse fibrin(ogen) antiserum (Nordic Immunological Laboratories) or a polyclonal anti-mouse fibronectin (Chemicon), followed by streptavidin Alexa 594 or anti-rabbit Alexa 594 (Molecular Probes), respectively. For peptide overlay, sections of frozen OCT embedded tissue were incubated with 10 μg/ml fluorescein-conjugated peptide for 30 min at room temperature. Tissue fluorescence was quantified using Image-Pro Plus software. At least two images from representative microscopic fields were analyzed from each tissue sample and data from individual mice that received the same treatment (n=2-8) were pooled.

[1] = tested on: mouse Lewis lung carcinoma; experiment: Peptide overlay assay on frozen tumor sections; format: binding
Protocol: as §1

PPC1 xenograft tumor = experiment: Peptide overlay assay on frozen tumor sections; format: binding; conditions: PPC1 xenografts
Protocol: as §1

[2] = tested on: human clinical breast cancers; experiment: Peptide overlay assay on frozen tumor sections; format: binding; conditions: two clinical breast cancers
Protocol: B16F1 mouse melanoma, Lewis lung carcinoma, C8161 human melanoma, MDA-MB-435 human breast cancer, and PPC-1 human prostate cancer cells (American Type Culture Collection) were maintained in RPMI or DMEM supplemented with 10% FCS. Human tumor cells (1×10^6) were injected into the mammary fat pad or the flank of nude BALB/c nu/nu mice to induce tumors. MMTV PyMT mice were provided by Dr. Robert Oshima (Burnham Institute for Medical Research, La Jolla, Calif.). The MMTV PyMT mice develop breast cancer under the influence of a polyoma middle T antigen driven by the mouse tumor virus promoter (Siegel, P. M., Ryan, E. D., Cardiff, R. D., Muller W. J. (1999) EMBO J., 18, 2149-64). […]
The mice were perfused through the heart 3 hours after the peptide injection and tissues removed for examination. […] Tissue fluorescence was quantified using Image-Pro Plus software. At least two images from representative microscopic fields were analyzed from each tissue sample and data from individual mice that received the same treatment (n=2-8) were pooled.

fibrinogen = biological target: T1, fibrinogen (Homo sapiens, UniProt P02671+P02675+P02679); experiment: Aggregate formation with plasma proteins, light scattering at 600 nm (turbidity); format: biochemical
T1 sequence (P02671 20-629 limits assumed): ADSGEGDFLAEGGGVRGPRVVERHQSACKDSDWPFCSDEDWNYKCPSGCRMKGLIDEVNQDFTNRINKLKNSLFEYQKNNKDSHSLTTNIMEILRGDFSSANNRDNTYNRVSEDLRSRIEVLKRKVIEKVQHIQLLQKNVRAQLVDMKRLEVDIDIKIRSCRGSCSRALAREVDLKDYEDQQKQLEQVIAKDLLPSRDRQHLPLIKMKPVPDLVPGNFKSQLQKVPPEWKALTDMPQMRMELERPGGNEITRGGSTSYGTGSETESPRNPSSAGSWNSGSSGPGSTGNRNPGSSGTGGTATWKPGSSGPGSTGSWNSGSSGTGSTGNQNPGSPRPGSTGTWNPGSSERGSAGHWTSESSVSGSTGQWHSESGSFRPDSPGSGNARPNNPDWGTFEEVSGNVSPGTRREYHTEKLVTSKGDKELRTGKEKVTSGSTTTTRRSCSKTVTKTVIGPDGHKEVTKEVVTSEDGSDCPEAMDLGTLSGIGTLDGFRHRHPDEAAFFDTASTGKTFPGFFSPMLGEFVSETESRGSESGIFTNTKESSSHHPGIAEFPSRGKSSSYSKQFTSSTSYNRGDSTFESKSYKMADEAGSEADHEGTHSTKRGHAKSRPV
T1 sequence (P02675 31-491): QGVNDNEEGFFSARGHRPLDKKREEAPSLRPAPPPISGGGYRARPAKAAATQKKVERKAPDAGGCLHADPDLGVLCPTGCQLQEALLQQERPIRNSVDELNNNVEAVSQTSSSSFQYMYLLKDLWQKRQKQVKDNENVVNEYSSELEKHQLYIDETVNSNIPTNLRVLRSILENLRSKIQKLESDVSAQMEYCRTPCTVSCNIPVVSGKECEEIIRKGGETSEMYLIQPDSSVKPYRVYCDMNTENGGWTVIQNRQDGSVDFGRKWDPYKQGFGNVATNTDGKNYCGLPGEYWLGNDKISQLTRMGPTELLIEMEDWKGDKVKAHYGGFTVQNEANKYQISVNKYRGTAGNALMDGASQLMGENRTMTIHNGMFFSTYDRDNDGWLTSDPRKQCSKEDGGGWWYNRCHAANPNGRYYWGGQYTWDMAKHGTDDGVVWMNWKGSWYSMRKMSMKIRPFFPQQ
T1 sequence (P02679 27-453): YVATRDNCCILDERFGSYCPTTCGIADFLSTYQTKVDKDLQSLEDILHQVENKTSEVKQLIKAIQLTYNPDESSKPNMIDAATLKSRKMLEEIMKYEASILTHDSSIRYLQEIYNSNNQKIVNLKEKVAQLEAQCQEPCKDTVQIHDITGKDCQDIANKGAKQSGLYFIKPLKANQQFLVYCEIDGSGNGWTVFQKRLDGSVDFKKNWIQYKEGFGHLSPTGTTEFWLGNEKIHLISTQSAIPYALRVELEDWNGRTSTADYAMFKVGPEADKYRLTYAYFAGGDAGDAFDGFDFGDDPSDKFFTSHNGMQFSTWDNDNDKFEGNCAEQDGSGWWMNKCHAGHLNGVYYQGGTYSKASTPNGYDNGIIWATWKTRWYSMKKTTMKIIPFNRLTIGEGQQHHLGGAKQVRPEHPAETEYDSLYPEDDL
Text: (§2) CLT1 contains a sequence of three consecutive hydrophobic residues, LII (leucine-isoleucine-isoleucine). This motif is very similar to the VII sequence (V, valine) which causes proteins to form large insoluble aggregates (Esteras-Chopo et al. 2005). […] The ability of CLT1 to aggregate proteins correlates with its cytotoxicity for human umbilical venous endothelial cells (HUVECs).

fibronectin = experiment: as above; format: biochemical
Text: as §2

Sequence: CGLIIQKNEC (also: cyclic, ring type not given here, fluorescein conjugate, site not given here) [CLT1, cyclic decapeptide from phage library screened on plasma clots; tested as fluorescein conjugate]
- co-localization of peptide fluorescence with fibrin staining (fibrin(ogen)): co-localized; also recorded: overlapping distribution
- overlay binding in presence of control peptide ([1]; co-incubation with control peptide): not by a control peptide
- overlay binding in presence of unlabeled CLT peptide ([1]; co-incubation with unlabeled CLT1): inhibited; also recorded: eliminated
- binding pattern in peptide overlay ([1]; fluorescein-conjugated peptide 10 μg/ml, 30 min): produced a fibrillar network
- overlay binding (PPC1 xenograft tumor): positive
- overlay binding [2]: positive
- aggregate formation with fibrinogen (fibrinogen): form aggregates
- aggregate formation with fibronectin (fibronectin): form aggregates
